Laboratory results reported in publication PMC10620772, “Design, synthesis, and biological evaluation of new pyrimidine-5-carbonitrile derivatives as novel anti-cancer, dual EGFR^WT/COX-2 inhibitors with docking studies” (RSC Advances, 2023).

Tests used:
KM12 = test: NCI60 antitumor screening; type: cell-based, human; conditions: for inhibition at 10 µM: Homo sapiens, 10 μM single dose, KM12 (colon cancer), read-out: growth inhibition percent (GI%)
IGROV1 = test: NCI60 antitumor screening; type: cell-based, human; conditions: for inhibition at 10 µM: Homo sapiens, IGROV-1, 10 μM single dose, IGROV1 (ovarian cancer), read-out: growth inhibition percent (GI%)
LOX IMVI = test: NCI60 antitumor screening; type: cell-based, human; conditions: for inhibition at 10 µM: Homo sapiens, 10 μM single dose, LOX IMVI (melanoma), read-out: growth inhibition percent (GI%)
MDA-MB-435 = test: NCI60 antitumor screening; type: cell-based, human; conditions: for inhibition at 10 µM: Homo sapiens, 10 μM single dose, MDA-MB-435 (melanoma), read-out: growth inhibition percent (GI%)
T-47D = test: NCI60 antitumor screening; type: cell-based, human; conditions: for inhibition at 10 µM: Homo sapiens, T47D, 10 μM single dose, T-47D (breast cancer), read-out: growth inhibition percent (GI%)
M14 = test: NCI60 antitumor screening; type: cell-based, human; conditions: for inhibition at 10 µM: Homo sapiens, 10 μM single dose, M14 (melanoma), read-out: growth inhibition percent (GI%)
OVCAR-3 = test: NCI60 antitumor screening; type: cell-based, human; conditions: for inhibition at 10 µM: Homo sapiens, 10 μM single dose, OVCAR-3 (ovarian cancer), read-out: growth inhibition percent (GI%)
NCI60 cell lines panel = test: NCI60 antitumor screening, full panel; type: cell-based, human; conditions: for inhibition at 10 µM: Homo sapiens, 10 μM single dose, mean over NCI60 cell lines, read-out: Mean growth inhibition percent (GI%)
Summary of the method: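 Single-concentration screen at 10 μM across the NCI60 panel (leukaemia, NSCLC, colon, CNS, melanoma, ovarian, renal, prostate, breast). Results are expressed as percent growth inhibition (GI%) of treated lines.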

U251 = test: NCI60 antitumor screening; type: cell-based, human; conditions: for inhibition at 10 µM: Homo sapiens, U-251, 10 μM single dose, U251 (CNS cancer), read-out: growth inhibition percent (GI%)
NCI-H226 = test: NCI60 antitumor screening; type: cell-based, human; conditions: for inhibition at 10 µM: Homo sapiens, 10 μM single dose, NCI-H226 (non-small cell lung cancer), read-out: growth inhibition percent (GI%); for GI%: 10 μM one-dose
A498 = test: NCI60 antitumor screening; type: cell-based, human; conditions: for inhibition at 10 µM: Homo sapiens, 10 μM single dose, A498 (renal cancer), read-out: growth inhibition percent (GI%)
UACC-62 = test: NCI60 antitumor screening; type: cell-based, human; conditions: for inhibition at 10 µM: Homo sapiens, 10 μM single dose, UACC-62 (melanoma), read-out: growth inhibition percent (GI%)
BT-549 = test: NCI60 antitumor screening; type: cell-based, human; conditions: for inhibition at 10 µM: Homo sapiens, 10 μM single dose, BT-549 (breast cancer), read-out: growth inhibition percent (GI%)
HT29 = test: NCI60 antitumor screening; type: cell-based, human; conditions: for inhibition at 10 µM: Homo sapiens, HT-29, 10 μM single dose, HT29 (colon cancer), read-out: growth inhibition percent (GI%)
SF-295 = test: NCI60 antitumor screening; type: cell-based, human; conditions: for inhibition at 10 µM: Homo sapiens, 10 μM single dose, SF-295 (CNS cancer), read-out: growth inhibition percent (GI%)
OVCAR-5 = test: NCI60 antitumor screening; type: cell-based, human; conditions: for inhibition at 10 µM: Homo sapiens, 10 μM single dose, OVCAR-5 (ovarian cancer), read-out: growth inhibition percent (GI%)
EKVX = test: NCI60 antitumor screening; type: cell-based, human; conditions: for inhibition at 10 µM: Homo sapiens, 10 μM single dose, EKVX (non-small cell lung cancer), read-out: growth inhibition percent (GI%)
SW-620 = test: NCI60 antitumor screening; type: cell-based, human; conditions: for inhibition at 10 µM: Homo sapiens, 10 μM single dose, SW-620 (colon cancer), read-out: growth inhibition percent (GI%)
RXF 393 = test: NCI60 antitumor screening; type: cell-based, human; conditions: for inhibition at 10 µM: Homo sapiens, 10 μM single dose, RXF 393 (renal cancer), read-out: growth inhibition percent (GI%); for GI%: 10 μM one-dose
A549/ATCC = test: NCI60 antitumor screening; type: cell-based, human; conditions: for inhibition at 10 µM: Homo sapiens, 10 μM single dose, A549/ATCC (non-small cell lung cancer), read-out: growth inhibition percent (GI%)
TK-10 = test: NCI60 antitumor screening; type: cell-based, human; conditions: for inhibition at 10 µM: Homo sapiens, 10 μM single dose, TK-10 (renal cancer), read-out: growth inhibition percent (GI%)
HCT-15 = test: NCI60 antitumor screening; type: cell-based, human; conditions: for inhibition at 10 µM: Homo sapiens, 10 μM single dose, HCT-15 (colon cancer), read-out: growth inhibition percent (GI%)
HL-60(TB) = test: NCI60 antitumor screening; type: cell-based, human; conditions: for inhibition at 10 µM: Homo sapiens, 10 μM single dose, HL-60(TB) (leukaemia), read-out: growth inhibition percent (GI%)
CAKI-1 = test: NCI60 antitumor screening; type: cell-based, human; conditions: for inhibition at 10 µM: Homo sapiens, 10 μM single dose, CAKI-1 (renal cancer), read-out: growth inhibition percent (GI%)
MDA-MB-231/ATCC = test: NCI60 antitumor screening; type: cell-based, human
SR = test: NCI60 antitumor screening; type: cell-based, human

N#Cc1c(-c2ccc(F)cc2)nc(SCc2ccc(F)cc2)nc1N1CCN(c2ccccc2)CC1 [4n, 2-((4-Fluorobenzyl)thio)-4-(4-fluorophenyl)-6-(4-phenylpiperazin-1-yl)pyrimidine-5-carbonitrile]
25.8%: inhibition at 10 µM (UACC-62)
16.3%: inhibition at 10 µM (CAKI-1)
10.1%: inhibition at 10 µM (M14)
24.3%: inhibition at 10 µM (T-47D)
< 10%: inhibition at 10 µM (KM12) | inhibition at 10 µM (IGROV1) | inhibition at 10 µM (LOX IMVI) | inhibition at 10 µM (MDA-MB-435) | inhibition at 10 µM (OVCAR-3) | inhibition at 10 µM (NCI60 cell lines panel) | inhibition at 10 µM (U251) | inhibition at 10 µM (NCI-H226) | inhibition at 10 µM (A498) | inhibition at 10 µM (BT-549) | inhibition at 10 µM (HT29) | inhibition at 10 µM (SF-295) | inhibition at 10 µM (OVCAR-5) | inhibition at 10 µM (SW-620) | inhibition at 10 µM (RXF 393) | inhibition at 10 µM (A549/ATCC) | inhibition at 10 µM (TK-10) | inhibition at 10 µM (HCT-15) | inhibition at 10 µM (HL-60(TB))
180 to 182 °C: melting point
18.7%: inhibition at 10 µM (EKVX)

Cc1ccc(CSc2nc(-c3ccc(F)cc3)c(C#N)c(N3CCOCC3)n2)cc1 [4d, 4-(4-Fluorophenyl)-2-((4-methylbenzyl)thio)-6-morpholinopyrimidine-5-carbonitrile]
32.25%: GI% (SF-295; 10 μM one-dose)
13.13%: GI% (U251; 10 μM one-dose)
11.10%: GI% (LOX IMVI; 10 μM one-dose)
21.35%: GI% (NCI-H226)
13.10%: GI% (EKVX; 10 μM one-dose)
24.90%: GI% (A549/ATCC; 10 μM one-dose)
12.46%: GI% (T-47D; 10 μM one-dose)
11.94%: GI% (BT-549; 10 μM one-dose)
44.00%: GI% (CAKI-1; 10 μM one-dose)
22.83%: GI% (UACC-62; 10 μM one-dose)
— (GI% < 10): GI% (KM12; 10 μM one-dose) | GI% (IGROV1; 10 μM one-dose) | GI% (MDA-MB-435; 10 μM one-dose) | GI% (M14; 10 μM one-dose) | GI% (OVCAR-3; 10 μM one-dose) | GI% (A498; 10 μM one-dose) | GI% (HT29; 10 μM one-dose) | GI% (OVCAR-5; 10 μM one-dose) | GI% (SW-620; 10 μM one-dose) | GI% (TK-10; 10 μM one-dose) | GI% (HCT-15; 10 μM one-dose) | GI% (HL-60(TB); 10 μM one-dose)
14.01%: Mean GI% (NCI60 cell lines panel; 10 μM one-dose, mean over NCI60)
— (GI value > 70%): GI% (SR; 10 μM one-dose, Table 1) | GI% (NCI-H226; Table 1) | GI% (RXF 393; Table 1)
31.92%: GI% (MDA-MB-231/ATCC; 10 μM one-dose)
48.96%: GI% (RXF 393)

Cc1ccc(CSc2nc(-c3ccc(F)cc3)c(C#N)c(N3CCNCC3)n2)cc1 [4h, 4-(4-Fluorophenyl)-2-((4-methylbenzyl)thio)-6-(piperazin-1-yl)pyrimidine-5-carbonitrile]
inactive: One-dose activity over the NCI60 panel (NCI60 cell lines panel; 10 μM)
< 10%: inhibition at 10 µM (KM12) | inhibition at 10 µM (IGROV1) | inhibition at 10 µM (LOX IMVI) | inhibition at 10 µM (MDA-MB-435) | inhibition at 10 µM (MDA-MB-231/ATCC; Homo sapiens, 10 μM single dose, MDA-MB-231/ATCC (breast cancer), read-out: growth inhibition percent (GI%)) | inhibition at 10 µM (T-47D) | inhibition at 10 µM (M14) | inhibition at 10 µM (OVCAR-3) | inhibition at 10 µM (SR; Homo sapiens, 10 μM single dose, SR (leukaemia), read-out: growth inhibition percent (GI%)) | inhibition at 10 µM (NCI60 cell lines panel) | inhibition at 10 µM (U251) | inhibition at 10 µM (NCI-H226) | inhibition at 10 µM (A498) | inhibition at 10 µM (UACC-62) | inhibition at 10 µM (BT-549) | inhibition at 10 µM (HT29) | inhibition at 10 µM (SF-295) | inhibition at 10 µM (OVCAR-5) | inhibition at 10 µM (EKVX) | inhibition at 10 µM (SW-620) | inhibition at 10 µM (RXF 393) | inhibition at 10 µM (A549/ATCC) | inhibition at 10 µM (TK-10) | inhibition at 10 µM (HCT-15) | inhibition at 10 µM (HL-60(TB))
11.7%: inhibition at 10 µM (CAKI-1)
